Measurements as given in patent US7575889B2, “Compound combinations for inhibiting cell division and methods for their identification and use” (President and Fellows of Harvard College, priority 2001, dated 2009).
In brackets after ≈: the same amount, converted by molar mass. Like-named read-outs stand apart in the source and are kept apart here.

Legend:
[1] = system: Clostridium perfringens; format: cell-based
[2] = system: DRC40/pBR-ftsZ+ cells; assay: MIC and growth/phenotype, DRC40 with wild-type ftsZ in trans; format: cell-based, E. coli
[3] = system: FtsZ ring assembly in E. coli DRC39 cells; assay: FtsZ ring assembly in vivo (FtsZ-GFP fluorescence microscopy) in DRC39 cells; format: cell-based
[4] = system: E. coli strain DRC39; assay: Combination anti-bacterial treatment at sub-MIC concentrations, growth of DRC39; format: cell-based; conditions: for reduction of the MIC when combined with sub-MIC 26E-10: DRC39
Procedure: Cell growth was assessed by visual inspection of cells incubated in culture tubes in this experiment and in the second, third, and fourth experiments described in this Example. In the fifth experiment growth was measured by reading optical density (OD600) using a multiwell plate reader. Cells were inoculated at a low concentration (1-2×10^5 cells/ml), such that the medium appeared clear.

[5] = system: B. cereus; assay: Killing of B. cereus; format: cell-based
[6] = system: E. coli DRC39 (ΔacrAB::kan); conditions: for MIC: E. coli DRC39 (ΔacrAB::kan), MIC99, broth dilution
[7] = system: E. coli DRC42 (DRC39 recA::cat); assay: MIC, E. coli DRC42
[8] = system: E. coli MC1000 (wild-type); assay: MIC, broth dilution, E. coli MC1000; conditions: MIC99, broth dilution
[9] = system: E. coli DRC40 (DRC39 ftsZ84); assay: MIC and growth/phenotype, E. coli DRC40
[10] = system: gram-negative and gram-positive bacteria; assay: Antibacterial activity against gram-negative and gram-positive bacteria; format: cell-based
Procedure: FIG. 19 is a table illustrating the minimum inhibitory concentrations of FtsZ GTPase inhibitory compounds identified in vitro. The compounds were tested against a variety of gram-negative and gram-positive bacteria.

[11] = biological target: FtsZ GTPase activity (Escherichia coli, UniProt P0A9A6); conditions: at the concentrations tested
Sequence of FtsZ GTPase activity (P0A9A6 whole entry): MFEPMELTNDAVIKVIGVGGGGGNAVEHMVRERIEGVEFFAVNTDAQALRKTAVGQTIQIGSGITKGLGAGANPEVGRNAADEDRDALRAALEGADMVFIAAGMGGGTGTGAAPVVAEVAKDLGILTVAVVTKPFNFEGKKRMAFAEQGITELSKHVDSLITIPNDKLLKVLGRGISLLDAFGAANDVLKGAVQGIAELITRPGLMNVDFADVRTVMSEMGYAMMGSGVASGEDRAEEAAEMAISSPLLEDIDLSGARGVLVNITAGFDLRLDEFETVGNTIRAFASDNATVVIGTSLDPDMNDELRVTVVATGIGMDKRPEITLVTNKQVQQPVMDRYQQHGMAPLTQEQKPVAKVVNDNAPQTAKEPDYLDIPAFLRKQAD

[12] = biological target: FtsZ protofilaments (Escherichia coli, UniProt P0A9A6); conditions: for effect on FtsZ polymers (class of inhibitor): electron micrographs, FIGS. 13-15
Sequence of FtsZ protofilaments (P0A9A6 whole entry): as above

[13] = biological target: M. tuberculosis FtzZ (FtsZMt) GTPase (Mycobacterium tuberculosis, UniProt P9WN95); assay: Malachite green-phosphomolybdate assay of FtsZ GTPase activity (M. tuberculosis FtsZ); format: biochemical; conditions: 5 min preincubation at 30° C., 1 mM GTP, averages from three determinations
Sequence of M. tuberculosis FtzZ (FtsZMt) GTPase (P9WN95 whole entry): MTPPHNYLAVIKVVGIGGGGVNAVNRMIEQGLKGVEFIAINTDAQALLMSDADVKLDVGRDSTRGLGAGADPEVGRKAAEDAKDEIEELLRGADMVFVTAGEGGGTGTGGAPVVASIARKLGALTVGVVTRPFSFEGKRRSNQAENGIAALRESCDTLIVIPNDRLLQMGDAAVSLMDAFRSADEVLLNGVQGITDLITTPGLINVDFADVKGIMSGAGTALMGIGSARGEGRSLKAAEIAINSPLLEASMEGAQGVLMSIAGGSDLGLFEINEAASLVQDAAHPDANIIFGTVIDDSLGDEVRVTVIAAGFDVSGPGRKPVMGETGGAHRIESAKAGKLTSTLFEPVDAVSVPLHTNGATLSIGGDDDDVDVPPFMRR

CC[n+]1ccc(/C=C/N(C)c2ccccc2)c2ccccc21.[I-] [26E-10]
phenotype and growth ([1]; 80 μM, anaerobic conditions): filamentation phenotype in the presence of 80 μM 26E-10 without any overt effect on cell growth
phenotype ([1]; Clostridium perfringens): filaments
cell density and filamentation versus DRC40/pBR322 ([2]; DRC40/pBR-ftsZ+, 5 μM): higher cell density and less pronounced filamentation
MIC ([2]; DRC40 with wild-type ftsZ provided in trans (pBR-ftsZ+)): 10 µM
cell length (filamentation) ([3]; 10 μM (MIC), DRC39, within 60 min of treatment): ~4 ×
Z-rings in elongated cells ([3]; 10 μM, DRC39, 60 min): markedly reduced in number and diminished in intensity
Z-rings after 90 min treatment ([3]; DRC39, 90 min): most of the cells were devoid of distinct Z-rings
amount of growth relative to the absence of compound ([4]; singly, 5 μM, OD600): 41%
growth inhibition ([4]; singly, 5 μM, OD600): 59%
killing of B. cereus [5]: efficiently killed
growth and morphology ([6]; DRC39, 5 μM, 30° C.): mixture of filaments of varying lengths and short cells present at a low density
MIC [6]: 10 µM
MIC [7]: 10 µM
MIC [8]: >40 µM
growth ([9]; DRC40/pBR322, 5 μM, 30° C.): absolutely no growth
MIC ([9]; E. coli DRC40 (DRC39 ftsZ84), slight turbidity believed to be unlysed filaments): 2.5 µM

Oc1ccc(Cl)cc1Cc1cc(Cl)cc(Cc2cc(Cl)ccc2O)c1O [27D-12]
activity against gram positive and gram negative bacteria [10]: effective against gram positive bacteria at very low concentrations and also kills gram negative species
effect on FtsZ GTPase activity in vitro [11]: inhibit FtsZ GTPase activity
effect on FtsZ GTPase activity in vitro ([11]; listed as 27-D12): reproducibly and robustly inhibited FtsZ GTPase activity
effect on FtsZ polymers (class of inhibitor) [12]: dose dependent destabilizing effect on the polymers
MIC [6]: 20 µM (≈ 8.19 µg/mL)

Nc1c(C=Cc2cc3cc(C4=NCCN4)ccc3o2)[nH]c2cc(C3=NCCN3)ccc12 [58P-18]
FtsZ ring in treated cells ([3]; 40 μM, DRC39 cells): none of the treated cells appear to contain a medial FtsZ ring
time to start of cell elongation ([3]; 40 μM, DRC39 cells): ≤ 60 min
reduction of the MIC when combined with sub-MIC 26E-10 [4]: ≥ 2 fold
effect on FtsZ GTPase activity in vitro [11]: inhibit FtsZ GTPase activity
effect on FtsZ GTPase activity in vitro ([11]; listed as 58-P18): reproducibly and robustly inhibited FtsZ GTPase activity
effect on FtsZ polymers (class of inhibitor) [12]: cause bundling of FtsZ protofilaments
MIC [6]: 80 µM (≈ 32.8 µg/mL)

CCN1C(=Cc2ccc3ccccc3[n+]2CC)C=Cc2ccccc21.[Cl-] [3G-09]
amount of growth relative to the absence of compound ([4]; alone, 0.375 μM, OD600): 92%
growth inhibition ([4]; alone, 0.375 μM, OD600): 8%
effect on FtsZ GTPase activity in vitro [11]: apparently do not affect FtsZ GTPase activity
MIC [6]: 6 µM

C=CCOc1c(Br)cc(S(=O)(=O)c2cc(Br)c(O)c(Br)c2)cc1Br [18M-04]
IC50 [13]: > 100 µM
activity against gram positive and gram negative bacteria [10]: kills gram positives
effect on FtsZ GTPase activity in vitro [11]: reproducibly and robustly inhibited FtsZ GTPase activity
effect on FtsZ protofilament assembly in vitro [12]: destabilizers of FtsZ protofilament assembly
effect on FtsZ polymers (class of inhibitor) [12]: dose dependent destabilizing effect on the polymers

CCN1C(=Cc2ccc3c4ccccc4ccc3[n+]2CC)C=Cc2ccccc21.Cc1ccc(S(=O)(=O)[O-])cc1 [7N-12]
amount of growth relative to the absence of compound ([4]; individually, 0.3 μM): 98%
growth inhibition ([4]; individually, 0.3 μM): 2%
effect on FtsZ GTPase activity in vitro [11]: inhibit FtsZ GTPase activity

CCN(CC)CCNc1nc(C=Cc2ccc(Cl)cc2)nc2cc3ccccc3cc12 [16L-09]
reduction of the MIC when combined with sub-MIC 26E-10 [4]: 4 fold
effect on FtsZ GTPase activity in vitro [11]: inhibit FtsZ GTPase activity
effect on FtsZ GTPase activity in vitro ([11]; listed as 16-L09): reproducibly and robustly inhibited FtsZ GTPase activity
effect on FtsZ polymers (class of inhibitor) [12]: cause bundling of FtsZ protofilaments
MIC [6]: 10 µM (≈ 4.31 µg/mL)

CC[n+]1c(/C=C/N(C)c2ccccc2)n(-c2ccccc2)c2ccc(-c3nc4ccccc4s3)cc21 [27F-02]
IC50 [13]: 70 µM
reduction of the MIC when combined with sub-MIC 26E-10 [4]: 5 fold
effect on FtsZ GTPase activity in vitro [11]: inhibit FtsZ GTPase activity
effect on FtsZ GTPase activity in vitro ([11]; listed as 27-F02): reproducibly and robustly inhibited FtsZ GTPase activity
effect on FtsZ protofilament assembly in vitro [12]: destabilizers of FtsZ protofilament assembly
effect on FtsZ polymers (class of inhibitor) [12]: cause bundling of FtsZ protofilaments
MIC [6]: 5 µM
